US20250369974A1, “METHOD FOR MONITORING AND PREVENTING CLINICALLY SIGNIFICANT KETONE LEVELS IN PATIENTS RECEIVING DICHLOROACETATE CO-ADMINISTERED WITH A CARBOHYDRATE RESTRICTED DIET” (SAOL INTERNATIONAL DEVELOPMENT LTD., priority 2024, published 2025)
Where two headings read alike, the source gives them in different places.

What was measured:
[1] = test system: patients with Pyruvate Dehydrogenase Complex Deficiency (PDCD); experiment: Plasma BHB (ketone) levels in Phase III study of DCA in PDCD patients; type: in vivo, human
Method: (§1) A total of 30 (of the 34) patients in the Phase III study in PDCD patients had lab values that could be evaluated throughout the study. Of these 30, 24 were defined to be adherent to a ketogenic diet based on their BHB level at baseline to be >0.3 mM.
(§2) A double-blind period (Phase A) and an open label period (Phase B) was performed in patients 6 months through 17 years of age with Pyruvate Dehydrogenase Complex Deficiency (PDCD) (n=34). Patients receiving DCA were dose-stratified according to GSTZ1 genotype. DCA was dosed orally (oral, nasogastric tube, or gastric tube route) at either 12.5 mg/kg (fast metabolizers) or 6.25 mg/kg (slow metabolizers), every 12 hours. Twenty-seven (27) of 34 patients (79%), were fast metabolizers. […]

[2] = test system: patients with Pyruvate Dehydrogenase Complex Deficiency (PDCD); experiment: Plasma lactate levels in Phase III study of DCA in PDCD patients; type: in vivo, human
Method: as §1, §2
Plasma lactate levels were evaluated as a key biomarker in PDCD. Lactate is a universal marker of disease activity in PDCD, and its elevation is a direct result of the fundamental metabolic deficit. Patients with PDCD have chronically elevated levels of lactate due to decreased PDC activity. Lowering of plasma lactate with use of DCA is considered a biomarker of its activation of PDC.

[3] = test system: patients with Pyruvate Dehydrogenase Complex Deficiency (PDCD); experiment: Phase III double-blind, placebo-controlled crossover study with open label period: ObsROmotor, GHA, seizures, observer survey; type: in vivo, human
Method: A double-blind period (Phase A) and an open label period (Phase B) was performed in patients 6 months through 17 years of age with Pyruvate Dehydrogenase Complex Deficiency (PDCD) (n=34). Patients receiving DCA were dose-stratified according to GSTZ1 genotype. DCA was dosed orally (oral, nasogastric tube, or gastric tube route) at either 12.5 mg/kg (fast metabolizers) or 6.25 mg/kg (slow metabolizers), every 12 hours. Twenty-seven (27) of 34 patients (79%), were fast metabolizers.
The drug product is a clear, colorless solution.
The primary efficacy outcome was assessed using an observer reported outcome that measures motor function, referred to as the ObsROmotor. The ObsROmotor is a daily observer reported survey that assesses weakness, incoordination, hypotonia (low muscle tone), hypertonia (rigidity, stiff muscle tone), and involuntary movements. Each domain was scored from 0 to 4, where 0 is no presence of the symptom, 1 is mild, 2 is moderate, 3 is severe and 4 extreme, with a total score ranging from 0 to 20.
PDCD is a heterogenous disease with neurologic, metabolic and structural abnormalities. An observer rated Global Health Assessment (GHA) was also used to assess the overall health of the patient in addition to ObsROmotor. GHA was measured each week to assess the prior 7 days using a 5-point scale (much better, better, no change, worse, much worse). GHA scores improved over time and the scores were correlated with ObsROmotor.

[4] = test system: pediatric patients with PDCD; experiment: Survival study of DCA-treated patients versus untreated natural history cohort; type: in vivo, human; conditions: primary endpoint, matched on age and sex; n=28 vs n=28; p=0.0273
Method: Efficacy was assessed in a second study by comparing overall survival in pediatric patients with PDCD treated with DCA (n=28) with an untreated natural history cohort of pediatric patients with genetically confirmed PDCD (n=28).

[5] = test system: pediatric patients with PDCD; experiment: Adverse reaction data of Phase III study and open-label extension; type: in vivo, human
Method: In the Phase III study, the safety of DCA was assessed in 34 pediatric patients with PDCD aged 6 months to 17 years. Patients receiving DCA were dose-stratified post-randomization according to GSTZ1 genotype to mitigate risk of peripheral neuropathy. DCA was dosed at either 12.5 mg/kg or 6.25 mg/kg divided into two equal doses approximately 12 hours apart. The dose based on GSTZ1 genotyping was done at baseline before patients initiated therapy. As noted above, this Phase III controlled study was followed by an ongoing, open-label extension study, used to assess long term safety and survival outcomes.
In the open-label extension study, patients were treated for up to 3 years (median: 1.4 years) with DCA. The adverse events observed during the open-label phase of the study were similar to those observed in the double-blind portion of the study. During the open label portion of the trial there was a report of mild peripheral neuropathy in one patient who later withdrew from the study for a family relocation. This occurred after 18 months and was considered possibly drug related. DCA induced peripheral neuropathy has been identified as reversible upon therapy discontinuation.

GSTZ1 haplotype carriers = conditions: cited from earlier work
[6] = Patient 01-001, DCA Open Label 1, keto ratio 4.0:1
[7] = Patient 01-001, DCA Open Label 2, keto ratio 4.0:1
[8] = Patient 01-001, DCA Open Label 3, keto ratio 4.0:1
[9] = Patient 01-001, DCA period, keto ratio 3.1:1
[10] = Patient 03-001, DCA Open Label 1, keto ratio Not Recorded
[11] = Patient 03-001, DCA Open Label 2, keto ratio 3.2:1
[12] = Patient 03-001, DCA Open Label 3, keto ratio 3.1:1
[13] = Patient 03-001, DCA period, keto ratio 4.0:1
[14] = Patient 07-003-S, DCA Open Label 1, keto ratio 0.7:1
[15] = Patient 07-003-S, DCA period, keto ratio 3.0:1
[16] = of the 24 patients adherent to the ketogenic diet
[17] = Phase III, all patients, p=0.006
[18] = severe patients (N=15), domain outside of motor function

O=C(O)C(Cl)Cl [DCA, Dichloroacetate]
average BHB level while on DCA ([1]; 9 patients without BHB increase, 2.04 mM not on DCA): 1.8 mM
measures that exceeded 3.0 mM BHB while on DCA ([1]; 9 patients without BHB increase, 38% not on DCA): 24%
average BHB level while on DCA ([1]; 15 patients that experienced an increase, 2.19 mM not on DCA): 3.27 mM
measurements with clinically significant BHB (>3.0 mM) while on DCA ([1]; 15 patients that experienced an increase, 13% not on DCA): 62%
increase in average BHB level ([1]; 15 patients that experienced an increase, on DCA vs not on DCA): 49%
BHB [1, 6]: 3.19 mM
BHB [1, 7]: 2.74 mM
BHB [1, 8]: 4.08 mM
BHB [1, 9]: 6.36 mM
BHB [1, 10]: 4.41 mM
BHB [1, 11]: 2.76 mM
BHB [1, 12]: 2.06 mM
BHB [1, 13]: 4.21 mM
BHB [1, 14]: 2.38 mM
BHB [1, 15]: 4.02 mM
increase in the number of patients with BHB levels of 3.0 mM or higher ([1]; group experiencing increases in BHB): ~5 fold
BHB levels greater than 4.0 while on DCA ([1]; group experiencing increases in BHB, 3% while not on DCA): 28%
patients that did not experience a rise in ketone levels after administration of DCA [1, 16]: Nine
patients with a rise in ketone levels after administration of DCA [1, 16]: 15
drop in lactate ([2]; 9 patients without BHB increase): 11%
percentage of patients with normal lactate levels (2.0 mM or less) while on DCA ([2]; 9 patients without BHB increase, 51% not on DCA): 71%
drop in lactate levels while on DCA ([2]; 15 patients with BHB increase): 20%
percentage of patients with normal lactate levels (2.0 mM or less) while on DCA ([2]; 15 patients with BHB increase, 33% not on DCA): 73%
Lactate [2, 6]: 1.58 mM
Lactate [2, 7]: 2.13 mM
Lactate [2, 8]: 1.33 mM
Lactate [2, 9]: 1.4 mM
Lactate [2, 10]: 1.36 mM
Lactate [2, 11]: 1.16 mM
Lactate [2, 12]: 1.41 mM
Lactate [2, 13]: 1.25 mM
Lactate [2, 14]: 0.68 mM
Lactate [2, 15]: 1.99 mM
difference in plasma lactate, DCA vs. placebo [2, 17]: -0.477 mM
reduction in plasma lactate levels, DCA vs. placebo [2, 17]: 21%
patients achieving lactate normalization while on DCA therapy ([2]; in both groups (with and without BHB increase)): > 70%
patients on DCA achieving normal levels (≤2mmol/L) of lactate ([2]; vs. 42% on placebo, P=0.0114): 66%
patients maintaining stable disease or achieving clinically meaningful improvement (>20% reduction in ObsROmotor) ([3]; open label extension, of 34 patients): 24
survey respondents noting improvement in cognition, verbal communication, mobility, and/or endurance ([3]; open-label office visits, 25 of the 26 respondents): 96.2%
observers rating patients with a GHA as better or much better ([3]; open-label portion): > 80%
patients showing improvement in motor function in at least one of the five domains ([3]; patients with more severe impairment at baseline (N=15)): 93%
improvement of motor function in the ObsROmotor scale vs. placebo ([3]; patients with more severe impairment at baseline (N=15), p=0.066): −1.12
number of severe patients improving: hypertonia ([3]; severe patients (N=15)): 6
number of severe patients improving: hypotonia ([3]; severe patients (N=15)): 8
number of severe patients improving: incoordination ([3]; severe patients (N=15)): 6
number of severe patients improving: involuntary movement ([3]; severe patients (N=15)): 6
number of severe patients improving: weakness ([3]; severe patients (N=15)): 6
number of severe patients improving: fatigue [3, 18]: 7
number of severe patients improving: sleep [3, 18]: 8
multivariate risk reduction in the relative risk of death vs untreated patients [4]: 99%
Balance disorder ([5]; DCA (N = 34)): 1 (2.9) n (%)
Bruxism ([5]; DCA (N = 34)): 0 n (%)
Constipation ([5]; DCA (N = 34)): 1 (2.9) n (%)
Diarrhea ([5]; DCA (N = 34)): 1 (2.9) n (%)
Fatigue ([5]; DCA (N = 34)): 1 (2.9) n (%)
Flatulence ([5]; DCA (N = 34)): 0 n (%)
Gastrointestinal disorders (SOC) ([5]; DCA (N = 34)): 2 (5.9) n (%)
General disorders and administration site conditions (SOC) ([5]; DCA (N = 34)): 1 (2.9) n (%)
Insomnia ([5]; DCA (N = 34)): 0 n (%)
Irritability ([5]; DCA (N = 34)): 0 n (%)
Muscular weakness ([5]; DCA (N = 34)): 1 (2.9) n (%)
Musculoskeletal and connective tissue disorders (SOC) ([5]; DCA (N = 34)): 1 (2.9) n (%)
Nervous system disorders (SOC) ([5]; DCA (N = 34)): 1 (2.9) n (%)
Psychiatric disorders (SOC) ([5]; DCA (N = 34)): 0 n (%)
Salivary hypersecretion ([5]; DCA (N = 34)): 0 n (%)
Skin and subcutaneous tissue disorders (SOC) ([5]; DCA (N = 34)): 1 (2.9) n (%)
Syncope ([5]; DCA (N = 34)): 1 (2.9) n (%)
Tremor ([5]; DCA (N = 34)): 1 (2.9) n (%)
Urticaria ([5]; DCA (N = 34)): 1 (2.9) n (%)
deaths ([5]; Phase III, 34 pediatric patients): no deaths
most commonly reported adverse reaction: gastrointestinal disorders ([5]; n=2 of 34 DCA-treated patients): 5.9%
patients with report of mild peripheral neuropathy ([5]; open label portion, after 18 months, considered possibly drug related): one
risk of peripheral neuropathy adverse events (GSTZ1 haplotype carriers; EGT carriers (fast metabolizers), 25 mg/kg/day): low risk
risk of peripheral neuropathy adverse events (GSTZ1 haplotype carriers; EGT non-carriers (slow metabolizers), 12.5 mg/kg/day): experience the same
